Values of other authors, collected in patent US20240277615A1, “SELF-EMULSIFYING COMPOSITION, PRODUCTION METHODS AND USES THEREOF” (Universidade Da Beira Interior, priority 2021, published 2024).

Tests used:
[1] = tested on: plasma protein

Row | SMILES | Log P | plasma protein binding [1]
1 | CC(C)CCC[C@@H](C)[C@H]1CC[C@H]2[C@@H]3CC=C4C[C@@H](O)CC[C@]4(C)[C@H]3CC[C@]12C [cholesterol] | 7 | 
2 | CCC(C)(C)C(=O)O[C@H]1C[C@@H](C)C=C2C=C[C@H](C)[C@H](CC[C@@H]3C[C@@H](O)CC(=O)O3)[C@H]21 [simvastatin] |  | 94-98%
